Data reported in PubChem BioAssay (NCI).
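The compound was tested at five concentrations on cells cultured in 96-well plates, with a 48-hour exposure period. Abbreviation: GI50, concentration required for 50% inhibition of growth. The concentration for full growth arrest is given as TGI.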

What was measured:
Experiment in all cases: growth of human tumour cells (NCI), 48 h
SF-295 CNS = system: SF-295 CNS
CCRF-CEM leukemia = system: CCRF-CEM leukemia
SNB-75 CNS = system: SNB-75 CNS
RXF 393 renal = system: RXF 393 renal
DLD-1 colon = system: DLD-1 colon
786-0 renal = system: 786-0 renal
SK-MEL-2 melanoma = system: SK-MEL-2 melanoma
NCI-H522 lung = system: NCI-H522 lung
KM20L2 colon = system: KM20L2 colon
T-47D breast = system: T-47D breast

| Compound | TGI (SF-295 CNS) [µM] | TGI (CCRF-CEM leukemia) [µM] | TGI (SNB-75 CNS) [µM] | TGI (RXF 393 renal) [µM] | TGI (DLD-1 colon) [µM] | TGI (786-0 renal) [µM] | TGI (SK-MEL-2 melanoma) [µM] | TGI (NCI-H522 lung) [µM] | TGI (KM20L2 colon) [µM] | GI50 (SF-295 CNS) [µM] | GI50 (CCRF-CEM leukemia) [µM] | GI50 (SNB-75 CNS) [µM] | GI50 (RXF 393 renal) [µM] | GI50 (T-47D breast) [µM] | TGI (T-47D breast) [µM] | GI50 (NCI-H522 lung) [µM] | GI50 (786-0 renal) [µM] | GI50 (SK-MEL-2 melanoma) [µM] |
| --- | --- | --- | --- | --- | --- | --- | --- | --- | --- | --- | --- | --- | --- | --- | --- | --- | --- | --- |
| Cc1ccc(C(=O)C#Cc2c[nH]c(=O)[nH]c2=O)cc1 | > 100 | 18.8 | 34.4 | 12.4 | 22.1 | 26.2 | 27.6 | – | – | – | – | – | – | – | – | – | – | – |
| COc1ccccc1C(N)c1ccccc1 (stereo not drawn) | > 100 | > 100 | > 100 | > 100 | > 100 | > 100 | – | > 100 | > 100 | – | – | – | – | – | – | – | – | – |
| NC(=O)Nc1c([N+](=O)[O-])cc(C(F)(F)F)cc1[N+](=O)[O-] | > 100 | > 100 | – | > 100 | – | > 100 | > 100 | > 100 | 80.6 | – | – | – | – | – | – | – | – | – |
| O=C(CN1C(=O)S/C(=C\C(Cl)=C\c2ccccc2)C1=O)NCCc1ccc(O)cc1 | 4.29 | > 100 | 6.64 | 3.5 | – | 3.54 | 7.74 | 5.77 | – | 2.1 | 2.16 | 1.05 | 1.78 | 2.47 | 8.65 | 1.96 | 1.84 | 2.64 |
| OCC1OC2OC3C(CO)OC(OC4C(CO)OC(OC5C(CO)OC(OC6C(CO)OC(OC7C(CO)OC(OC1C(O)C2O)C(O)C7O)C(O)C6O)C(O)C5O)C(O)C4O)C(O)C3O (stereo not drawn) (tested in a mixture with another compound) | > 100 | > 100 | > 100 | > 100 | – | > 100 | > 100 | > 100 | – | – | – | – | – | – | > 100 | – | – | – |
| CCN(CC)CCCCNc1ncc2cc(-c3cc(OC)cc(OC)c3)c(NC(=O)NC(C)(C)C)nc2n1 | 10.3 | 66.1 | 13.1 | 11.4 | – | 19.3 | 13 | 18.4 | – | 3.59 | 3.96 | 0.372 | 1.63 | 10.8 | 29.3 | 6.45 | 5.42 | 3.67 |
| CCn1c(-c2nonc2N)nc2cncc(C(=O)NCCNC)c21 | > 25 | > 25 | 6.61 | > 25 | – | > 25 | > 25 | > 25 | – | > 25 | > 19.9 | 0.246 | 2.57 | 16.7 | > 25 | 13.1 | 12.1 | 5.27 |
| COc1ccc(-c2nn(-c3cccc(NC(=O)c4cccc(C(F)(F)F)c4)c3)cc2-c2ccncc2)cc1Cl | 9.91 | > 100 | 4.07 | 7.78 | – | 27.5 | 13.2 | 3.55 | – | 2.37 | 1.9 | 1.17 | 1.46 | 2.56 | > 100 | 0.475 | 2.91 | 3 |
| COC(=O)C(Cc1ccccc1)NC(=O)Cn1ccnc1[N+](=O)[O-] (stereo not drawn) | > 100 | > 100 | > 100 | > 100 | – | > 100 | > 100 | > 100 | > 100 | – | – | – | – | – | – | – | – | – |
| COC(=O)CS(=O)c1ccccc1 (stereo not drawn) | > 100 | 63.2 | – | 49.2 | > 100 | 72.4 | > 100 | 30.1 | – | – | – | – | – | – | – | – | – | – |
| COc1ccc2c(c1)/C(=C\c1c(Cl)n(C)c3ccccc13)C(=O)N2 | 6.66 | > 100 | 23.6 | 8.23 | – | 12.5 | 31.4 | 7.14 | – | 0.981 | 3.53 | 1.67 | 1.53 | 3.02 | 31.4 | 0.726 | 2.18 | 0.668 |
| CC1OC(n2c3ccccc3c3c4c(c5c6ccccc6[nH]c5c32)C(=O)N(CCN2CCOCC2)C4=O)CC(O)C1O (stereo not drawn) | 6.23 | 18.1 | 5.87 | 10.6 | – | 6.53 | 22 | 11.1 | – | 1.61 | 2.1 | 0.729 | 2.82 | 1.37 | 10.4 | 1.52 | 1.49 | 10.6 |
| CCOC(=O)NC(=O)c1cn(CCCOC(=O)NCCCCCCNC(=O)OCCCn2cc(C(=O)NC(=O)OCC)c(=O)[nH]c2=O)c(=O)[nH]c1=O | 49.4 | > 100 | 45.2 | – | > 100 | 49.9 | – | – | > 100 | – | – | – | – | – | – | – | – | – |
| Cc1nn(-c2ccccc2)c2nc3c(nc12)C1=NCCN1C(c1ccc(Cl)cc1)N3 (stereo not drawn) | 8.24 | 7.85 | 6.25 | 3.07 | – | 8.9 | 4.46 | 7.14 | – | 2.56 | 2.69 | 1.62 | 1.56 | 1.74 | 3.42 | 2.83 | 2.99 | 2.3 |
| CCN(CC)CCCC(Cc1ccccc1)Nc1c2ccc(Cl)cc2nc2ccc(OC)cc12 (stereo not drawn) | 3.55 | 6.51 | 3.65 | 3.35 | – | 3.34 | 3.46 | 3.57 | – | 1.86 | 2 | 1.62 | 1.63 | 1.97 | 4.16 | 1.81 | 1.4 | 1.79 |
| COc1ccc(OC)c(/C=C2\COc3ccc(O)c(O)c3C2=O)c1 | 15.5 | 34.4 | 18.3 | 3.58 | – | 7.12 | 8.44 | 0.58 | – | 4.29 | 0.679 | 3.72 | 1.83 | 2.64 | 15.2 | 0.219 | 2.28 | 2.84 |
| O=C(Cc1ccccc1)NC(c1ccc(Cl)cc1)c1c(O)ccc2ccccc12 (stereo not drawn) | 7.5 | 26.7 | 12.4 | 8.03 | – | 9.76 | 6.83 | 7.57 | – | 2.35 | 3.91 | 2.22 | 2.17 | 3.65 | 13.8 | 2.82 | 2.87 | 2.9 |
| CC1=NC(C(C)C)C(=O)O1 (stereo not drawn) | > 100 | > 100 | > 100 | – | > 100 | > 100 | – | > 100 | > 100 | – | – | – | – | – | – | – | – | – |
